This passage reports IC50 results from ChEMBL document CHEMBL5726725, “Inhibitors of metallo-beta-lactamase (MBL) comprising a zinc chelating moiety” (2019).

A short description of experiment [1]: (§1) MBL Inhibitory Activity in Constructed E. coli Cells Expressing MBLs: a. Transfer 50 μl LB with 0.8 mM IPTG (0.4 mM final concentration in assay) to each wellb. Add 1 μl inhibitor/positive control (500/1000 μM final concentration in assay) to selected wellsc. Add 50 μl overnight culture (=1) to each welld. Incubate in plate reader at 37° C. for 20 min with shakinge. Add 5 μl nitrocefin (3.2 mM) to selected wells with a multichannel pipettef. Incubate the plate in the plate reader for 3 hours, measuring nitrocefin hydrolysis at A482 every minute, with shaking in-betweeng. Measure endpoint at A600 to see how inhibitor alone effects bacterial growthh. Centrifuge the plate at 2800 rpm for 10 min, and transfer 50 μl to clean wellsi. Measure A482 endpoint.

Experiment [2] concerns the target Metallo-beta-lactamase type 2 (Bacteria, UniProt C7C422). The experiment is described as §1.

Metallo-beta-lactamase type 2, sequence (C7C422 whole entry): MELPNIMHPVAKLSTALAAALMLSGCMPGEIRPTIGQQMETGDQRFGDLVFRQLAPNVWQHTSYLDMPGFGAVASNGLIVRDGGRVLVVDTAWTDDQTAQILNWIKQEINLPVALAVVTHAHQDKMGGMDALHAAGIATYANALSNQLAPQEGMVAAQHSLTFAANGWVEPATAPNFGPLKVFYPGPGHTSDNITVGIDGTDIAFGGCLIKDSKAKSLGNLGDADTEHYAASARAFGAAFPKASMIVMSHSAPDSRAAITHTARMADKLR

As for `COc1ccc(Cn2cc(CN(Cc3ccccn3)Cc3ccccn3)nn2)cc1`, the IC50 – broadly, the point on the concentration scale where inhibition reaches its midpoint – worked out at 2260 nM in experiment [1] and 380 nM in experiment [2].
